Measurements: PubChem BioAssay AID1845211 (Molecular Pharmacology Branch, DTP, NCI, 2023)

Test system: NCI-H322M multicellular tumor spheroids, viability (% test/control)
Experiment: Anticancer human tumor NCI-H322M cell line growth inhibition;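 as to viability, T/C: spheroids exposed to compound for seven days before readout; 100% = DMSO vehicle control wells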
Details: for IC50: curve of first compound; for viability, T/C: stronger effect = lower value
Summary of the method: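 Complex tumor spheroids combined malignant cells with endothelial cells and mesenchymal stem cells. DNA-damaging drugs and DNA repair inhibitors were tested alone and in combination, at half-log dilutions down from clinical Cmax (top 10 microM if Cmax unknown), 0.25% DMSO final.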

[1] = second compound 1 µM, first compound 0.0949 µM
[2] = second compound 1 µM, first compound 0.3 µM
[3] = second compound 1 µM, first compound 0.949 µM
[4] = second compound 1 µM, first compound 3 µM
[5] = second compound 3.16 µM, first compound 0.0949 µM
[6] = second compound 3.16 µM, first compound 0.3 µM
[7] = second compound 3.16 µM, first compound 0.949 µM
[8] = second compound 3.16 µM, first compound 3 µM
[9] = second compound 10 µM, first compound 0.0949 µM
[10] = second compound 10 µM, first compound 0.3 µM
[11] = second compound 10 µM, first compound 0.949 µM
[12] = second compound 10 µM, first compound 3 µM
[13] = second compound 31.6 µM, first compound 0.0949 µM
[14] = second compound 31.6 µM, first compound 0.3 µM
[15] = second compound 31.6 µM, first compound 0.949 µM
[16] = second compound 31.6 µM, first compound 3 µM
[17] = second compound 100 µM, first compound 0.0949 µM
[18] = second compound 100 µM, first compound 0.3 µM
[19] = second compound 100 µM, first compound 0.949 µM
[20] = second compound 100 µM, first compound 3 µM

SMILES | IC50 (second compound 1 µM) [µM] | IC50 (second compound 3.16 µM) [µM] | IC50 (second compound 10 µM) [µM] | IC50 (second compound 31.6 µM) [µM] | IC50 (second compound 100 µM) [µM] | viability, T/C [1] [%] | viability, T/C [2] [%] | viability, T/C [3] [%] | viability, T/C [4] [%] | viability, T/C [5] [%] | viability, T/C [6] [%] | viability, T/C [7] [%] | viability, T/C [8] [%] | viability, T/C [9] [%] | viability, T/C [10] [%] | viability, T/C [11] [%] | viability, T/C [12] [%] | viability, T/C [13] [%] | viability, T/C [14] [%] | viability, T/C [15] [%] | also measured
Cn1ncnc1[C@H]1c2n[nH]c(=O)c3cc(F)cc(c23)N[C@@H]1c1ccc(F)cc1 + Cn1nnc2c(C(N)=O)ncn2c1=O | > 3 | > 3 | > 3 | > 3 | > 3 | 87.8 | 81.2 | 88.8 | 70 | 84.3 | 74.3 | 81.5 | 67.8 | 73.8 | 76.2 | 77.1 | 59.3 | 78.8 | 76.5 | 70.9 | viability, T/C (second compound 1 µM, first compound 0.00949 µM): 89.4%; viability, T/C (second compound 1 µM, first compound 0.03 µM): 79.4%; viability, T/C (second compound 3.16 µM, first compound 0.00949 µM): 77.9%; viability, T/C (second compound 3.16 µM, first compound 0.03 µM): 113%; viability, T/C (second compound 10 µM, first compound 0.00949 µM): 83.1%; viability, T/C (second compound 10 µM, first compound 0.03 µM): 71%; viability, T/C (second compound 31.6 µM, first compound 0.00949 µM): 90.3%; viability, T/C (second compound 31.6 µM, first compound 0.03 µM): 74.1%; viability, T/C [16]: 69.3%; viability, T/C (second compound 100 µM, first compound 0.00949 µM): 92.2%; viability, T/C (second compound 100 µM, first compound 0.03 µM): 68.8%; viability, T/C [17]: 64.5%; viability, T/C [18]: 68.9%; viability, T/C [19]: 59.5%; viability, T/C [20]: 57.7%
O=C(c1cc(Cc2n[nH]c(=O)c3ccccc23)ccc1F)N1CCN(C(=O)C2CC2)CC1 + Cn1nnc2c(C(N)=O)ncn2c1=O | > 30 | > 30 | > 30 | > 30 | > 30 | 84.3 | 93.5 | 88.7 | 92.5 | 86.1 | 81.5 | 80.1 | 79.9 | 85.4 | 90.7 | 85.7 | 78.1 | 105 | 87.5 | 86.1 | viability, T/C (second compound 1 µM, first compound 9.49 µM): 78%; viability, T/C (second compound 1 µM, first compound 30 µM): 94%; viability, T/C (second compound 3.16 µM, first compound 9.49 µM): 88.2%; viability, T/C (second compound 3.16 µM, first compound 30 µM): 84.6%; viability, T/C (second compound 10 µM, first compound 9.49 µM): 80%; viability, T/C (second compound 10 µM, first compound 30 µM): 73.5%; viability, T/C [16]: 93.1%; viability, T/C (second compound 31.6 µM, first compound 9.49 µM): 84.5%; viability, T/C (second compound 31.6 µM, first compound 30 µM): 93.6%; viability, T/C [17]: 76.8%; viability, T/C [18]: 82.4%; viability, T/C [19]: 96.4%; viability, T/C [20]: 86.8%; viability, T/C (second compound 100 µM, first compound 9.49 µM): 75.2%; viability, T/C (second compound 100 µM, first compound 30 µM): 71.4%
